Results published in ChEMBL document CHEMBL1143451, “The neuroprotective action of JNK3 inhibitors based on the 6,7-dihydro-5H-pyrrolo[1,2-a]imidazole scaffold” (Bioorg Med Chem Lett, 2005).

Experiments:
[1] = target: T1, Mitogen-activated protein kinase 10 (Homo sapiens, UniProt P53779); assay: Inhibitory activity against c-Jun N-terminal kinase 3 at a concentration of 1.0 uM
[2] = target: T2, Mitogen-activated protein kinase 14 (Homo sapiens, UniProt Q16539); assay: Inhibitory activity against p38 at a concentration of 1.0 uM
[3] = target: T1, Mitogen-activated protein kinase 10; assay: Inhibitory concentration against c-Jun N-terminal kinase 3 at a concentration of 1.0 uM
[4] = target: T2, Mitogen-activated protein kinase 14; assay: Inhibitory concentration against p38 at a concentration of 1.0 uM

T1 sequence (P53779 whole entry): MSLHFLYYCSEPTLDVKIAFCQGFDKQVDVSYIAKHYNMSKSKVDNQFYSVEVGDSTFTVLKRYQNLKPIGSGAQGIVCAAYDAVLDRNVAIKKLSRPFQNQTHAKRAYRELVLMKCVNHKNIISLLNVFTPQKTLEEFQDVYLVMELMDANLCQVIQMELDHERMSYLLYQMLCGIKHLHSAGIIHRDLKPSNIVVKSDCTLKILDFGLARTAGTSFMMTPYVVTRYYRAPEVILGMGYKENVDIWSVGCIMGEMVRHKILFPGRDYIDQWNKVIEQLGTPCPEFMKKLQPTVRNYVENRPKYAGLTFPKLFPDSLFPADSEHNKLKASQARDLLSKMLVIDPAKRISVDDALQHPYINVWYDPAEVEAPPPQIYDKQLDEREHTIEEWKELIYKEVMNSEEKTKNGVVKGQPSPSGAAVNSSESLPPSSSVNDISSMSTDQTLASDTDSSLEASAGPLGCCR
T2 sequence (Q16539 whole entry): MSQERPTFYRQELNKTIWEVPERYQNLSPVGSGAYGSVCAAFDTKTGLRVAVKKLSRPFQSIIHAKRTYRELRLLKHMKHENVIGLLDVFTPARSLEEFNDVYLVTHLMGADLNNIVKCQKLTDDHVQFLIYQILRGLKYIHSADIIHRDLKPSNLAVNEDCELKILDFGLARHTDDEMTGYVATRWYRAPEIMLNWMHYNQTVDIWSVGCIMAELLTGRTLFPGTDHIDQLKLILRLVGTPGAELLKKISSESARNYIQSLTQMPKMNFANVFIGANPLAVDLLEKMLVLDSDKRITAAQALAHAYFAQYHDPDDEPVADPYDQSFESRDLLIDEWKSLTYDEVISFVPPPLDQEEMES

For CCCNc1nccc(-c2c(-c3ccc(F)cc3)nc3n2[C@@H](CO)CC3)n1, the IC50 [1] was 3 nM and the IC50 [2] was 31 nM.

CCCNc1nccc(-c2c(-c3ccc(F)cc3)nc3n2[C@H](COCc2ccc(OC)cc2)CC3)n1 gave an IC50 [1] of 10.9 nM and an IC50 [2] of 54 nM.

Work on COc1ccc(COC[C@H]2CCc3nc(-c4ccc(F)cc4)c(-c4ccnc(N)n4)n32)cc1 yielded an IC50 [1] of 270 nM and an IC50 [2] of 116 nM.

Molecule CCCNc1nccc(-c2c(-c3ccc(F)cc3)nc3n2[C@H](CO)CC3)n1 has an IC50 [1] of 2.5 nM and an IC50 [2] of 28 nM.

COc1ccc(COC[C@@H]2CCc3nc(-c4ccc(F)cc4)c(-c4ccnc(N)n4)n32)cc1 was tested, and the IC50 [1] was 61.2 nM and the IC50 [2] was 295 nM.

For O=C(NCCCn1cnc(-c2ccc(F)cc2)c1-c1ccncc1)c1ccccc1, the IC50 [3] was 130 nM.

Work on [N-]=[N+]=Nc1cccc(-c2ncn(CCCNC(=O)c3ccc(I)cc3)c2-c2ccncc2)c1 yielded an IC50 [4] of 46 nM.

For CCCNc1nccc(-c2c(-c3ccc(F)cc3)nc3n2[C@@H](COCc2ccc(OC)cc2)CC3)n1, the IC50 [1] was 233 nM and the IC50 [2] was 217 nM.
